Assay results reported in patent US20240261272A1, “LPA1 ANTAGONISTS FOR TREATING INTERSTITIAL LUNG DISEASE” (Bristol-Myers Squibb Company, priority 2022, published 2024).

Legend:
[1] = Phase 2 study, PPF cohort: safety, adverse events, prespecified blood pressure reduction criteria, dose reductions; type: in vivo, human; conditions: for Asymptomatic blood pressure reduction, patients (%) / Asymptomatic blood pressure reduction, patients, no. / Symptomatic blood pressure reduction, patients (%) / Symptomatic blood pressure reduction, patients, no.: prespecified criteria
Procedure: A total of 123 participants with PPF were randomized. Participants (age ≥21 years) were randomized (1:1:1) to receive 30 mg or 60 mg Compound A or PBO twice daily for 26 weeks. […] Immunosuppressive medications (mycophenolate mofetil, mycophenolic acid, azathioprine and/or tacrolimus) were permitted only if dosing is stable for ≥6 months prior to screening. If receiving antifibrotic agents pirfenidone or nintedanib, patients had to receive a stable dosage for ≥3 months prior to screening and during the screening period; if not receiving pirfenidone or nintedanib, patients had to be naive to both drugs or not have received either 4 weeks prior to Day 1. A total of 47 (38.2%) subjects were receiving antifibrotic treatment (with or without immunosuppression therapy). Of those subjects, 34 were being treated with nintedanib and 13 with pirfenidone. Participants were stratified by usual interstitial pneumonia (UIP) pattern (presence versus absence) and background therapy (antifibrotics +/−ILD-targeted immunosuppression versus ILD-targeted immunosuppression alone versus none).UIP pattern was present in 52% of subjects and unclassifiable ILD was he most common disease categorization.
Patient is experiencing any of the following, confirmed by retest within 15 minutes: • Seated systolic blood pressure <85 mmHg • Seated diastolic blood pressure <55 mmHg • Orthostatic hypotension
Patient is experiencing symptoms that, in the investigator's opinion, could be associated with a reduction in blood pressure and is also experiencing at least one of the following, confirmed by retest within 15 minutes: • Seated systolic blood pressure <100 mmHg or seated diastolic blood pressure <60 mmHg • Decrease of seated systolic blood pressure of ≥20 mmHg from the previous visit or decrease of seated diastolic blood pressure of ≥10 mmHg from the previous visit • Orthostatic hypotension • Orthostatic tachycardia

[2] = Phase 1 Part B multiple ascending dose (MAD) study in healthy participants: safety, blood pressure; type: in vivo, human; set-up: Mean DBP: unit not given here
Procedure: The study was performed in 3 parts in 112 healthy male and female participants, including 24 Japanese participants. Female participants were to be not of childbearing potential. The present study was designed to evaluate the safety and tolerability, PK, and exploratory PD of an oral suspension of Compound A. Parts A and B (Cohort B1 only) enrolled healthy participants and was conducted at a site in The Netherlands and Part B (Cohort B2 to B5) enrolled healthy non-Japanese participants and was conducted at a site in the United Kingdom (UK). Part C enrolled healthy Japanese participants and was conducted at the same site in the UK.
Part B was a MAD study in a planned number of 6 sequential dose escalation cohorts (10 mg QD, 30 mg QD, 30 mg BID, 60 mg BID, 125 mg BID, and ≤250 mg BID) of 8 healthy participants (6 active+2 placebo) each, under fasted conditions. However, Cohort B6 (≤250 mg BID) was cancelled because sufficient safety and PK data had been obtained at doses up to 125 mg BID. Eligible participants received study drug (Compound A or placebo) administered orally for 14 days.
Physical examinations, vital sign measurements (including orthostasis testing in Cohort A6, Cohort B3 to B5, and C1 to C3 at selected time points), 12-lead electrocardiogram (ECG), and clinical laboratory evaluations were performed at selected times throughout the study. In addition, Holter monitoring was performed for the first 24 hours post dose on Day 1 in Part A (not in FE/pH cohort), and also for the first 24 hours post dose on Day 1 and Day 14 in Parts B and C. Participants were closely monitored for adverse events (AEs). Blood samples were collected for up to 14 days (follow-up visit) after (last) study drug administration for PK analysis. In addition, blood and urine were collected for exploratory biomarker assessments and for biobanking of samples for potential analyses. Urine was collected for potential PK analysis for up to 96 hours after a single dose of Compound A or placebo was administered in the SAD part, and for up to 24 hours after the first (morning) dose of study drug on Day 1 and for up to 24 hours after the last (morning) dose of study drug on Day 14 in the MAD parts.

CCCN(C)C(=O)OCc1c(-c2ccc(O[C@H]3CCC[C@H](C(=O)O)C3)c(C)n2)nnn1C [Compound A, (1S,3S)-3-((2-methyl-6-(1-methyl-5-(((methyl(propyl)carbamoyl)-oxy)methyl)-1H-1,2,3-triazol-4-yl)pyridin-3-yl)oxy)cyclohexane-1-carboxylic acid]
day-1 blood pressure reduction (in words) [1]: dose dependent day-1 blood pressure reduction
hepatobiliary toxicity (in words) [1]: No hepatobiliary toxicity
tolerability and safety findings (in words) [1]: well-tolerated, demonstrated no unexpected safety findings
Dose dependent low BP thresholds ("events") ([1]; 30 mg): 30%
≥1 TEAE related to study drug, no. ([1]; 30 mg (n = 40)): 7
≥1 TEAE, no. ([1]; 30 mg (n = 40)): 33
≥1 TESAE, no. ([1]; 30 mg (n = 40)): 4
≥1 TEAE related to study drug, no. ([1]; 60 mg (n = 42)): 11
≥1 TEAE, no. ([1]; 60 mg (n = 42)): 28
≥1 TESAE, no. ([1]; 60 mg (n = 42)): 5
Orthostatic hypotension (asymptomatic and symptomatic), comparison of groups (in words) ([1]; 60 mg group): higher in the 60 mg group than for other groups
Dose reductions, patients (%) ([1]; 30-mg Compound A (n = 40)): (15.0) %
Dose reductions, patients, no. ([1]; 30-mg Compound A (n = 40)): 6
Orthostatic hypotension (under asymptomatic blood pressure reduction), patients (%) ([1]; 30-mg Compound A (n = 40)): (15.0) %
Orthostatic hypotension (under asymptomatic blood pressure reduction), patients, no. ([1]; 30-mg Compound A (n = 40)): 6
Orthostatic hypotension (under symptomatic blood pressure reduction), patients (%) ([1]; 30-mg Compound A (n = 40)): (2.5) %
Orthostatic hypotension (under symptomatic blood pressure reduction), patients, no. ([1]; 30-mg Compound A (n = 40)): 1
Asymptomatic blood pressure reduction, patients (%) ([1]; 30-mg Compound A (n = 40)): (22.5) %
Asymptomatic blood pressure reduction, patients, no. ([1]; 30-mg Compound A (n = 40)): 9
Symptomatic blood pressure reduction, patients (%) ([1]; 30-mg Compound A (n = 40)): (5.0) %
Symptomatic blood pressure reduction, patients, no. ([1]; 30-mg Compound A (n = 40)): 2
Dose reductions, patients (%) ([1]; 60-mg Compound A (n = 42)): (11.9) %
Dose reductions, patients, no. ([1]; 60-mg Compound A (n = 42)): 5
Orthostatic hypotension (under asymptomatic blood pressure reduction), patients (%) ([1]; 60-mg Compound A (n = 42)): (26.2) %
Orthostatic hypotension (under asymptomatic blood pressure reduction), patients, no. ([1]; 60-mg Compound A (n = 42)): 11
Orthostatic hypotension (under symptomatic blood pressure reduction), patients (%) ([1]; 60-mg Compound A (n = 42)): (9.5) %
Orthostatic hypotension (under symptomatic blood pressure reduction), patients, no. ([1]; 60-mg Compound A (n = 42)): 4
Asymptomatic blood pressure reduction, patients (%) ([1]; 60-mg Compound A (n = 42)): (31.0) %
Asymptomatic blood pressure reduction, patients, no. ([1]; 60-mg Compound A (n = 42)): 13
Symptomatic blood pressure reduction, patients (%) ([1]; 60-mg Compound A (n = 42)): (14.3) %
Symptomatic blood pressure reduction, patients, no. ([1]; 60-mg Compound A (n = 42)): 6
marked laboratory abnormalities (in words) ([1]; among treatment groups): No notable imbalances in marked laboratory abnormalities among treatment groups
Mean DBP ([2]; MAD 10 mg QD, D 1 2 h): 70.2
Mean DBP ([2]; MAD 10 mg QD, D 1 4 h): 65.8
Mean DBP ([2]; MAD 10 mg QD, D 1 8 h): 68.7
Mean DBP ([2]; MAD 10 mg QD, D 2 24 h): 65.3
Mean DBP ([2]; MAD 10 mg QD, D 14 312 h): 69.3
Mean DBP ([2]; MAD 10 mg QD, D 14 314 h): 67.5
Mean DBP ([2]; MAD 10 mg QD, D 14 317 h): 64.3
Mean DBP ([2]; MAD 10 mg QD, D 14 320 h): 67.5
Mean DBP ([2]; MAD 10 mg QD, D 15 336 h): 66.8
Mean DBP ([2]; MAD 30 mg BID, D 1 2 h): 63.3
Mean DBP ([2]; MAD 30 mg BID, D 1 4 h): 62.7
Mean DBP ([2]; MAD 30 mg BID, D 1 8 h): 63.2
Mean DBP ([2]; MAD 30 mg BID, D 2 24 h): 66.7
Mean DBP ([2]; MAD 30 mg BID, D 14 312 h): 68.7
Mean DBP ([2]; MAD 30 mg BID, D 14 314 h): 63.8
Mean DBP ([2]; MAD 30 mg BID, D 14 317 h): 61.0
Mean DBP ([2]; MAD 30 mg BID, D 14 320 h): 617
Mean DBP ([2]; MAD 30 mg BID, D 15 336 h): 65.3
Mean DBP ([2]; MAD 30 mg QD, D 1 2 h): 66.5
Mean DBP ([2]; MAD 30 mg QD, D 1 4 h): 67.8
Mean DBP ([2]; MAD 30 mg QD, D 1 8 h): 66.0
Mean DBP ([2]; MAD 30 mg QD, D 2 24 h): 67.3
Mean DBP ([2]; MAD 30 mg QD, D 14 312 h): 63.3
Mean DBP ([2]; MAD 30 mg QD, D 14 314 h): 63.5
Mean DBP ([2]; MAD 30 mg QD, D 14 317 h): 61.8
Mean DBP ([2]; MAD 30 mg QD, D 14 320 h): 63.2
Mean DBP ([2]; MAD 30 mg QD, D 15 336 h): 62.3
Mean DBP ([2]; MAD 60 mg BID, D 1 2 h): 64.5
Mean DBP ([2]; MAD 60 mg BID, D 1 4 h): 66.0
Mean DBP ([2]; MAD 60 mg BID, D 1 8 h): 64.7
Mean DBP ([2]; MAD 60 mg BID, D 2 24 h): 65.7
Mean DBP ([2]; MAD 60 mg BID, D 14 312 h): 64.8
Mean DBP ([2]; MAD 60 mg BID, D 14 314 h): 64.0
Mean DBP ([2]; MAD 60 mg BID, D 14 317 h): 62.5
Mean DBP ([2]; MAD 60 mg BID, D 14 320 h): 63.0
Mean DBP ([2]; MAD 60 mg BID, D 15 336 h): 64.5
Mean DBP ([2]; MAD 125 mg BID, D 1 2 h): 62.3
Mean DBP ([2]; MAD 125 mg BID, D 1 4 h): 64.7
Mean DBP ([2]; MAD 125 mg BID, D 1 8 h): 64.7
Mean DBP ([2]; MAD 125 mg BID, D 2 24 h): 66.3
Mean DBP ([2]; MAD 125 mg BID, D 14 312 h): 62.0
Mean DBP ([2]; MAD 125 mg BID, D 14 314 h): 65.0
Mean DBP ([2]; MAD 125 mg BID, D 14 317 h): 59.2
Mean DBP ([2]; MAD 125 mg BID, D 14 320 h): 61.8
Mean DBP ([2]; MAD 125 mg BID, D 15 336 h): 63.0
BP reductions versus placebo (in words) ([2]; MAD BID groups): no clear differences between placebo and the Compound A groups
